Measurements reported in patent US20250197408A1, “CRYSTALLINE FORMS AND SALTS OF A PI3K INHIBITOR AND METHODS OF MAKING AND METHODS OF USE THEREOF” (Totus Medicines Inc., priority 2022, published 2025).

Key:
NCI-H23 (Lung) = test: Cell proliferation assay (CellTiter-Glo, 3 days treatment), NCI-H23; type: cell-based; settings: Homo sapiens, 72 h, read-out: Absolute IC50
From the text: (§1) The cell lines tested included as follows: UM-UC-3 (bladder), KYSE-410 (HN/Esophagus), SW1463 (rectum), Calu-1 (Lung), NCI-H358 (Lung), SW837 (Rectum), SW756 (Cervix), NCI-H2122 (Lung), NCI-H1373 (Lung), NCI-H1792 (Lung), NCI-H23 (Lung), MIA PaCa-2 (Pancreas), and HC44.
(§2) Cells were recovered and maintained in appropriate culture media. The cells were harvested respectively during the logarithmic growth period. The cells were then resuspended and counted using a Vi cell counter (The cell viability be measured by trypan blue exclusion assay.). The cells were then diluted and 90 μL cell suspensions were used in 96-well plates according to plate map with final cell density. Two duplicate plates were set up. One is for day 0 reading (TO) and the other was cultured in incubator for reading at the end point. The incubated plates were incubated overnight in humidified incubator at 37° C. with 5% CO2.
(§3) At day 0, 10 μL culture medium to each well for TO reading. 10 μL of culture medium was added to each well for TO reading. Then, 50 μl CellTiter-Glo® Reagent was added to each well. […] Luminescence was then recorded using an EnVision Multi Label Reader. […]
(§4) For the endpoint CTG reading, 50 μL of CellTiter-Glo® Reagent were added to each well. […] Luminescence was then recorded using an EnVision Multi Label Reader. IC50's were determined for each cell line.

SW1463 (rectum) = test: Cell proliferation assay (CellTiter-Glo, 3 days treatment), SW1463; type: cell-based; settings: Homo sapiens, 72 h, read-out: Absolute IC50
From the text: as §1, §2, §3, §4

PI3K = target: T1, PI3K (Homo sapiens, UniProt P42336); test: NanoBRET screening in transfected HEK293 cells (binding assay, with washout); settings: compound incubated overnight then washed
T1 construct: expressed in transfected cells; host or cells: HEK293 (Gibco 293-H, #11631017), transient transfection with FuGENE HD
Procedure: Human embryonic kidney 293-H (HEK 293, Gibco 293-H, #11631017) cell lines were maintained in Dulbecco's Modified Eagle Medium, high glucose, pyruvate (DMEM, Gibco, #11995065) supplemented with 10% fetal bovine serum (FBS, Gibco, #10082147) and 1× penicillin-streptomycin (100× solution, Gibco, #15140148) at 37° C. and 5% CO2 in a water-saturated incubator. Cell were trypsinized using 0.05% or 0.25% Trypsin-EDTA solution (Trypsin-EDTA, phenol red, Gibco, #25200056 (0.25%) or #25300054). Opti-MEM media supplemented with 10% fetal bovine serum (Opti-MEM I reduced serum media, no phenol red, Gibco, #11058021) was used for culturing cells overnight for NanoBRET readout experiments.
HEK293 cells were cultivated appropriately prior to assay. The medium from cell flask was removed via aspiration, washed 1× with PBS followed by aspiration, trypsinized, and cells were allowed to dissociate from the flask. Trypsin was neutralized using growth medium and cells were pelleted via centrifugation at 200×g for 5 minutes. The medium was aspirated and the cells were resuspended into a single cell suspension using Opti-MEM I supplemented with 10% FBS. The cell density was adjusted to 2×10^5/mL in Opti-MEM I supplemented with 10% FBS in a sterile, conical tube. […]
A 10 μg/mL solution of DNA was prepared in Opti-MEM without serum. […] The plate on plate reader is read every hour for the next 6 hours.

NCI-H1373 (Lung) = test: Cell proliferation assay (CellTiter-Glo, 3 days treatment), NCI-H1373; type: cell-based; settings: Homo sapiens, 72 h, read-out: Absolute IC50
From the text: as §1, §2, §3, §4

MIA PaCa-2 (Pancreas) = test: Cell proliferation assay (CellTiter-Glo, 3 days treatment), MIA PaCa-2; type: cell-based; settings: Homo sapiens, 72 h, read-out: Absolute IC50
From the text: as §1, §2, §3, §4

SW756 (Cervix) = test: Cell proliferation assay (CellTiter-Glo, 3 days treatment), SW756; type: cell-based; settings: Homo sapiens, 72 h, read-out: Absolute IC50
From the text: as §1, §2, §3, §4

KYSE-410 (HN/Esophagus) = test: Cell proliferation assay (CellTiter-Glo, 3 days treatment), KYSE-410; type: cell-based; settings: Homo sapiens, 72 h, read-out: Absolute IC50
From the text: as §1, §2, §3, §4

UM-UC-3 (bladder) = test: Cell proliferation assay (CellTiter-Glo, 3 days treatment), UM-UC-3; type: cell-based; settings: Homo sapiens, UMUC3, 72 h, read-out: Absolute IC50
From the text: as §1, §2, §3, §4

SW837 (Rectum) = test: Cell proliferation assay (CellTiter-Glo, 3 days treatment), SW837; type: cell-based; settings: Homo sapiens, 72 h, read-out: Absolute IC50
From the text: as §1, §2, §3, §4

NCI-H1792 (Lung) = test: Cell proliferation assay (CellTiter-Glo, 3 days treatment), NCI-H1792; type: cell-based; settings: Homo sapiens, 72 h, read-out: Absolute IC50
From the text: as §1, §2, §3, §4

Calu-1 (Lung) = test: Cell proliferation assay (CellTiter-Glo, 3 days treatment), Calu-1; type: cell-based; settings: Homo sapiens, 72 h, read-out: Absolute IC50
From the text: as §1, §2, §3, §4

HC44 = test: Cell proliferation assay (CellTiter-Glo, 3 days treatment), HC44; type: cell-based; settings: Homo sapiens, 72 h, HCC44 (Lung), read-out: Absolute IC50
From the text: as §1, §2, §3, §4

NCI-H358 (Lung) = test: Cell proliferation assay (CellTiter-Glo, 3 days treatment), NCI-H358; type: cell-based
From the text: as §1, §2
At day 0, 10 μL culture medium to each well for TO reading. Then, 50 μl CellTiter-Glo® Reagent was added to each well. The contents were then mixed for 2 minutes on an orbital shaker to facilitate cell lysis. The plates were then allowed to incubate at room temperature for 10 minutes to stabilize luminescent signal. Luminescence was then recorded using an EnVision Multi Label Reader. The test compound Compound I, and a control cisplatin, where then diluted at various concentrations from a 10 mM stock solution. Compound I was diluted and 10 μL of each 10× compound I from working solutions for a concentration ranging from 10 μM to about 0.005 μM. Cisplatin was diluted to about […] to about 150 nM. The screening plates were then placed back into the incubator for the appropriate treatment time (3 days).
For the endpoint CTG reading, 50 μL of CellTiter-Glo® Reagent were added to each well. The contents were then mixed for 2 minutes on an orbital shaker to facilitate cell lysis. […] Luminescence was then recorded using an EnVision Multi Label Reader. IC50's were determined for each cell line.

NCI-H2122 (Lung) = test: Cell proliferation assay (CellTiter-Glo, 3 days treatment), NCI-H2122; type: cell-based; settings: Homo sapiens, 72 h, read-out: Absolute IC50
From the text: as §1, §2, §3, §4

T1 sequence (P42336 whole entry): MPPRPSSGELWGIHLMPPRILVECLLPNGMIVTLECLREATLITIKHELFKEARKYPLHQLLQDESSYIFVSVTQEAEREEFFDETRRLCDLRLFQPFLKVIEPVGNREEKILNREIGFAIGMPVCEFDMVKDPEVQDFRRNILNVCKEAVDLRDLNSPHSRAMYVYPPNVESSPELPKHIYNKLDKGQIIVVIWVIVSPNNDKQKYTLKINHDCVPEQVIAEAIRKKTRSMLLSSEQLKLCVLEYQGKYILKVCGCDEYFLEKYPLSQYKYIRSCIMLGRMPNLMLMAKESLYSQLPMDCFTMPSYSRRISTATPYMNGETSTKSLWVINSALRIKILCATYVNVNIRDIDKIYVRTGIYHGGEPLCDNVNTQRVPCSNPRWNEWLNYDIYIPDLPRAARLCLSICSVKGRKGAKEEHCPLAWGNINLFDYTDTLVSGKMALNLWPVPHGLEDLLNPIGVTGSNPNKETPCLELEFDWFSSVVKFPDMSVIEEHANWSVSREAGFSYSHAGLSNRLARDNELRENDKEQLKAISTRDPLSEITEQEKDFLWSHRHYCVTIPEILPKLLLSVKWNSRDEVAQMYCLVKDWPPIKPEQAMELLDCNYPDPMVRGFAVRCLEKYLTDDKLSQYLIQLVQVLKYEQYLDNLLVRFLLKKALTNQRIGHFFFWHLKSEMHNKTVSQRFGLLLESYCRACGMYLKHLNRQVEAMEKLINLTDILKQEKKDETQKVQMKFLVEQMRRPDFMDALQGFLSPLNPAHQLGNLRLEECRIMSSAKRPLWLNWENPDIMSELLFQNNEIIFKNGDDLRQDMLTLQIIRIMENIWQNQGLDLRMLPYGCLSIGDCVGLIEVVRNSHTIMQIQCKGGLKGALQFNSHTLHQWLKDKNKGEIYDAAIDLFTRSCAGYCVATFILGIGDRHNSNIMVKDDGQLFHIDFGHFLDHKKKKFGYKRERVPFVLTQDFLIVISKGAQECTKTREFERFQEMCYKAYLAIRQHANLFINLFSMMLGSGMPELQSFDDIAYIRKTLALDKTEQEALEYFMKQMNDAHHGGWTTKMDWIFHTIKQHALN
T1 sequence (P27986 whole entry partner): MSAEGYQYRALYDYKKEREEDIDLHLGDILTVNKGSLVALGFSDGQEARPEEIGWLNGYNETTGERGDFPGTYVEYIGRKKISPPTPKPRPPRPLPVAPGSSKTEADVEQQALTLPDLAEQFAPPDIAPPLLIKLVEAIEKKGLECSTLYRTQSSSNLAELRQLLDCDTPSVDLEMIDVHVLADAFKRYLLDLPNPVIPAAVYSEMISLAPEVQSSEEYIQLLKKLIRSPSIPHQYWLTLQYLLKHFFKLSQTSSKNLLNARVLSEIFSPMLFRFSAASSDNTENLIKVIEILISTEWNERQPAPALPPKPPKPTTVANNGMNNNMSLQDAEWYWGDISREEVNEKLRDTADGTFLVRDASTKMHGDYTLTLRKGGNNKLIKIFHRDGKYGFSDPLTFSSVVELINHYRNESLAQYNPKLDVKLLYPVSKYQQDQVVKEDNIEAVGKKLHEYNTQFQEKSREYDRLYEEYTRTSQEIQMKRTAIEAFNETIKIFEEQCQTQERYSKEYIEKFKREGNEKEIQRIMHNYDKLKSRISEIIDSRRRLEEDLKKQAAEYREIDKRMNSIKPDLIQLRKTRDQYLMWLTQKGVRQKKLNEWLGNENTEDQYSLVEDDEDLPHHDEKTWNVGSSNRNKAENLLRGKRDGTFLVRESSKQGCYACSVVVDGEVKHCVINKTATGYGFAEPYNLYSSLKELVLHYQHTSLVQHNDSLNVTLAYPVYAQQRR

**Q.** For `C=CC(=O)NCC(=O)N1CCN(Cc2cc3c(N4CCOCC4)nc(-c4cnc(NC(=O)OC)cc4C(F)(F)F)nn3c2)CC1` [Compound I, methyl (5-(6-((4-(acryloylglycyl)piperazin-1-yl)methyl)-4-morpholinopyrrolo[2,1-f][1,2,4]triazin-2-yl)-4-(trifluoromethyl)pyridin-2-yl) carbamate], which IC50 (NCI-H23 (Lung)) is on record?
**A.** > 10 µM

**Q.** And the IC50 (SW1463 (rectum))?
**A.** 3.86 µM

**Q.** What about the “inhibition of the PI3K target” value (PI3K) of the same molecule?
**A.** greater than 80%

**Q.** And the IC50 (NCI-H1373 (Lung))?
**A.** > 10 µM

**Q.** What about the IC50 (MIA PaCa-2 (Pancreas)) of the same molecule?
**A.** > 10 µM

**Q.** What about the IC50 (SW756 (Cervix)) of the same molecule?
**A.** 7.29 µM

**Q.** And the IC50 (KYSE-410 (HN/Esophagus))?
**A.** 2.02 µM

**Q.** What about the IC50 (UM-UC-3 (bladder)) of the same molecule?
**A.** > 10 µM

**Q.** And the IC50 (SW837 (Rectum))?
**A.** > 10 µM

**Q.** And the IC50 (NCI-H1792 (Lung))?
**A.** > 10 µM

**Q.** What about the IC50 (Calu-1 (Lung)) of the same molecule?
**A.** > 10 µM

**Q.** And the IC50 (HC44)?
**A.** 7.92 µM

**Q.** And the IC50 (NCI-H358 (Lung); Homo sapiens, 72 h, NCI-H358 (Lung), 3 days treatment, read-out: Absolute IC50)?
**A.** 1.69 µM

**Q.** And the “inhibitory effect on cell proliferation” value (NCI-H358 (Lung); NCI-H358, 3 days treatment, CellTiter-Glo)?
**A.** substantial inhibitory effect

**Q.** What about the IC50 (NCI-H2122 (Lung)) of the same molecule?
**A.** 3.77 µM
